Laboratory results taken from US6673791B2, “Non-nucleoside reverse transcriptase inhibitors” (Boehringer Ingelheim (Canada) Ltd., priority 2001, dated 2004).
Read-outs that look alike come from different tables or passages of the source.

Columns and labels:
[1] = test system: WT RT (HIV-1 wild type strain); test: EC50 assay, WT RT strain; format: cell-based
Text: (§1) Reverse TranscriptASE (RT) Assays
(§2) The assays are as described in WO 01/96338A1, the contents of which are hereby incorporated herein. The results are listed in Tables 8 as IC50(nM) and EC50(nM).

[2] = molecular target: T1, V106A mutant RT (HIV-1 RT) (Human immunodeficiency virus type 1 group M subtype B, UniProt P03366, V705A); test: biochemical
T1 construct: mutations that occur in the reverse transcriptase segment of the pol gene
Text: (§3) Based upon testing of these compounds, as described below, it is known that they inhibit the RNA-dependent DNA polymerase activity of HIV-1 RT. […] Utilising the Reverse Transcriptase (RT) Assay described below, compounds can be tested for their ability to inhibit the RNA-dependent DNA polymerase activity of HIV-1 RT. Certain specific compounds described in the Examples which appear below, were so tested. The results of this testing appear in Table 4 as IC50 (nM) and Table 5 as EC50 (nM).
as §1, §2

[3] = molecular target: T2, Y188L mutant RT (HIV-1 RT) (Human immunodeficiency virus type 1 group M subtype B, UniProt P03366, Y787L); test: biochemical
T2 construct: mutations that occur in the reverse transcriptase segment of the pol gene
Text: as §3, §1, §2

[4] = molecular target: T3, K103N/Y181C double mutant RT (HIV-1 RT) (Human immunodeficiency virus type 1 group M subtype B, UniProt P03366, K702N/Y780C); test: biochemical
T3 construct: mutations that occur in the reverse transcriptase segment of the pol gene
Text: as §3, §1, §2

WT RT (HIV-1 RT) = molecular target: T4, WT RT (HIV-1 RT) (Human immunodeficiency virus type 1 group M subtype B, UniProt P03366); test: biochemical
T4 construct: mutations that occur in the reverse transcriptase segment of the pol gene
Text: as §3, §1, §2

[5] = test system: K103N/Y181C (HIV-1 double mutant strain); test: EC50 assay, K103N/Y181C strain; format: cell-based
Text: as §1, §2

[6] = Human immunodeficiency virus 1, read-out: EC50 WT RT (nM)
[7] = K103N/Y181C double mutant RT, read-out: IC50 K103N/Y181C
[8] = Human immunodeficiency virus 1, read-out: EC50 K103N/Y181C (nM), K103N/Y181C double mutant
[9] = wild type RT, read-out: IC50 WT RT

| Structure (SMILES) | IC50 ([2]; IC50 V106A (nM)) [nM] | IC50 ([3]; IC50 Y188L (nM)) [nM] | IC50 [4] [nM] | IC50 (WT RT (HIV-1 RT)) [nM] | further results |
| --- | --- | --- | --- | --- | --- |
| CCN1c2ncc(CCOc3cccc4c3CCCN4CC(=O)O)cc2C(=O)N(C)c2cccnc21 [Entry 6001] | > 1000 | > 1000 | > 1000 | < 100 | EC50 [1, 6]: 100 to 1000 nM |
| CCN1c2ncc(CCOc3ccc(CCC(=O)O)c4ccccc34)cc2C(=O)N(C)c2cccnc21 [Entry 2011] |  |  |  |  | EC50 ([1]; wild type, read-out: EC50 WT RT): < 100 nM; EC50 ([5]; K103N/Y181C double mutant, read-out: EC50 K103N/Y181C): 100 to 1000 nM; IC50 ([2]; read-out: IC50 V106A): > 1000 nM; IC50 ([3]; read-out: IC50 Y188L): > 1000 nM; IC50 [4, 7]: 100 to 1000 nM |
| CCN1c2ncc(CCOc3ccc(CC(=O)O)c4ccccc34)cc2C(=O)Nc2c(C)cc(F)nc21 [Entry 1014] | 100 to 1000 | > 1000 | 100 to 1000 | < 100 |  |
| CCN1c2ncc(CCOc3ccc(CC(=O)O)c4ccccc34)cc2C(=O)N(C)c2ccc(C)nc21 [Entry 1011] | > 1000 | > 1000 | 100 to 1000 | < 100 |  |
| CCN1c2ncc(CCOc3ccc(/C=C/C(=O)O)c4ccccc34)cc2C(=O)N(C)c2ccc(C)nc21 [Entry 2017] | > 1000 | > 1000 |  |  | IC50 ([4]; read-out: IC50 K103N/Y181C, K103N/Y181C double mutant RT): 100 to 1000 nM; IC50 (WT RT (HIV-1 RT); read-out: IC50 WT RT, wild type RT): < 100 nM |
| CCN1c2ncc(CCOc3ccc(/C=C(\C)C(=O)O)c4ccccc34)cc2C(=O)Nc2c(C)ccnc21 [Entry 1039] | 100 to 1000 | > 1000 | 100 to 1000 | < 100 |  |
| CCN1c2ncc(CCOc3ccc(C(=O)O)c4ccccc34)cc2C(=O)Nc2c(C)ccnc21 [Entry 1005] | 100 to 1000 | > 1000 | 100 to 1000 | < 100 |  |
| CCN1c2ncc(CCOc3ccc(NS(C)(=O)=O)c4ccccc34)cc2C(=O)N(C)c2cccnc21 [Entry 2003] | > 1000 | > 1000 | 100 to 1000 | < 100 | EC50 [5, 8]: < 100 nM |
| CCN1c2ncc(CCOc3ccc(CC(C)C(=O)O)c4ccccc34)cc2C(=O)Nc2c(C)ccnc21 (stereo not shown) [Entry 1046] | > 1000 | > 1000 | > 1000 | < 100 |  |
| CCN1c2ncc(CCOc3ccc(CC(=O)O)c4ccccc34)cc2C(=O)Nc2c(C)ccnc21 [Entry 1013] | > 1000 | > 1000 | > 1000 | < 100 |  |
| CCN1c2ncc(CCOc3ccc(C(=O)O)c4c3CCN(S(C)(=O)=O)C4)cc2C(=O)N(C)c2cccnc21 [Entry 7005] | > 1000 | 100 to 1000 | < 100 | < 100 | EC50 [1, 6]: < 100 nM |
| CCN1c2ncc(CCOc3ccc(C(=O)O)c4ccccc34)cc2C(=O)N(C)c2cccnc21 [Entry 1001] |  |  |  |  | EC50 [1, 6]: < 100 nM; EC50 [5, 8]: < 100 nM |
| CCN1c2ncc(CCOc3ccc(C(=O)O)c4ccccc34)cc2C(=O)N(C)c2cccnc21 [Entry 2010] | > 1000 | > 1000 | 100 to 1000 | < 100 |  |
| CCN1c2ncc(CCOc3ccc(CC(C)C(=O)O)c4ccccc34)cc2C(=O)N(C)c2cccnc21 (stereo not shown) [Entry 2021] |  |  |  |  | IC50 (WT RT (HIV-1 RT); [9]): 100 to 1000 nM |
| CCN1c2ncc(CCOc3ccc4cc(CC(=O)O)ccc4c3)cc2C(=O)N(C)c2cccnc21 [Entry 3004] | 100 to 1000 | > 1000 | > 1000 | < 100 |  |
| CCN1c2ncc(CCOc3ccc4cc(C(=O)O)ccc4c3)cc2C(=O)N(C)c2cccnc21 [Entry 3001] | 100 to 1000 | > 1000 | 100 to 1000 | < 100 |  |
| CCN1c2ncc(CCOc3cccc4c(S(N)(=O)=O)cccc34)cc2C(=O)N(C)c2cccnc21 [Entry 2004] | 100 to 1000 | 100 to 1000 | < 100 | < 100 |  |
| CCN1c2ncc(CCOc3ccc(NC(=O)CC(C)(C)C(=O)O)c4ccccc34)cc2C(=O)N(C)c2cccnc21 [Entry 2007] |  |  |  |  | IC50 ([2]; read-out: IC50 V106A): > 1000 nM; IC50 ([3]; read-out: IC50 Y188L): > 1000 nM; IC50 [4, 7]: 100 to 1000 nM; IC50 (WT RT (HIV-1 RT); [9]): < 100 nM |
| CCN1c2ncc(CCOc3ccc(CCC(=O)O)c4ccccc34)cc2C(=O)Nc2c(C)cc(F)nc21 [Entry 1027] | 100 to 1000 | > 1000 | 100 to 1000 | < 100 |  |
| CCN1c2ncc(CCOc3ccc(CC(=O)NS(C)(=O)=O)c4ccccc34)cc2C(=O)N(C)c2cccnc21 [Entry 2012] |  |  |  |  | IC50 ([2]; read-out: IC50 V106A): > 1000 nM; IC50 ([3]; read-out: IC50 Y188L): > 1000 nM; IC50 [4, 7]: > 1000 nM; IC50 (WT RT (HIV-1 RT); [9]): < 100 nM |
